{"source": "patent US20260000632A1", "about": "“STRUCTURALLY MODIFIED FATTY ACIDS FOR IMPROVING GLYCEMIC CONTROL AND TREATING INFLAMMATORY BOWEL DISEASE” (Northsea Therapeutics B.V., priority 2018, published 2026)", "key": {"[1]": {"test": "Excretion balance of radioactivity after single oral [14C]-Compound B", "assay_type": "in vivo, rat", "conditions": "male albino rats, single oral [14C]-Compound B 50 mg/kg", "experimental": "To assess Compound B clearance via urine versus feces, the excretion pattern of a single oral dose of [14C]-Compound B was determined in male albino rats. […] The total excretion of radioactivity following oral administration was >95% within the first 48 hours. Excretion via the urine accounted for 12% of the administered dose. […]"}, "[2]": {"tested_on": "DSS-induced colitis C56BL/6J mice", "test": "DSS-induced colitis mouse model (body weight, colon length, survival, histology)", "assay_type": "in vivo", "conditions": "for Difference in weight loss between control and treated group / Survival rate 7 days after colitis was induced: 1.5% DSS; for Survival rate 7 days after colitis was induced: C56BL/6J mice (control 50%)", "from_the_text": "The dextran sodium sulphate-induced (DSS)-induced colitis model is well known in the art as a reproducible chemical induction of intestinal inflammation animal model. See, e.g., Eichele et al., World J Gastroenterol, 2017, 23(33):6016-6029; Randhawa et al., Korean J. Physiol. Pharmacol. (2014) 18:279-288; Jurjus et al., J. Pharmacol. Toxicol., Methods, 2004, 50:81-92; Gaudio et al., Dig. Dis. Sci., 1999, 44:1458-1475. The DSS-induced colitis model morphologically and symptomatically resembles epithelial damage seen in human IBD, and thus has become the most extensively employed experimental model of intestinal inflammation. Okayasu et al., Gastroenterology, 1990, 98:694-702; Kawada et al., World J. Gastroenterol. 2007, 13:5581-5593. The DSS-induced colitis model is most similar to ulcerative colitis in humans, but also has many similarities to Crohn's disease.\nDSS is a water soluble, negatively charged sulfated polysaccharide with a highly variable molecular weight ranging from 5 to 1400 kDa. Murine colitis results from administration of about 1% to 3% DSS to the drinking water of a mouse strain susceptible to DSS-induced colitis. Without being bound by theory, the sulfated polysaccharide may not directly induce intestinal inflammation, but may instead act as a direct chemical toxin to colonic epithelium resulting in epithelial cell injury. It is thought that DSS disrupts the intestinal epithelial monolayer lining, leading to the entry of luminal bacteria and associated antigens into the mucosa and allowing the dissemination of proinflammatory intestinal contents into underlying tissue. […] Perse et al., J. Biomed. Biotechnol., 2012:718617.\nThe C56BL/6J mouse is a strain susceptible to DSS-induced colitis. To evaluate the efficacy and dosage of Compound B in treatment of DSS-induced colitis, inflammation was induced in 30 9-week old C56BL/6J mice by adding 1.5% DSS to the drinking water for 7 days. The mice were fed a standard chow diet that consisted of 30 weight percent wheat. The mice were divided into three groups of 10, and for each day of DSS administration each group was administered via oral gavage either (1) 100 μL corn oil per day (Control), (2) 126 mg/kg Compound B (dissolved in 100 μL corn oil) per day (“Compound B-Low” or “Compound B-L”), or (3) 252 mg/kg Compound B (dissolved in 100 μL corn oil) per day (“Compound B-High” or “Compound B-H”). Following the 7-day period of DSS induction, mice were sacrificed and their intestinal tissue was used for histopathological and gene expression analysis.\nTo assess the efficacy of Compound B in the treatment of DSS-induced colitis in mice, the body weight of mice was monitored. Weight loss is an indicator of colitis severity.\nTo assess the efficacy of Compound B in the treatment of DSS-induced colitis in mice, colon length of test mice was measured. Colon length correlates inversely with inflammation.\nHistopathological analysis was performed on sections of formalin-fixed paraffin embedded tissue after hematoxylin and eosin (H&E) staining. Colonic samples were analyzed by histopathology for assignment of scores for colitis activity as described in Neurath et al., J. Exp. Med., 2002, 195:1129-1143. Briefly, the degrees of inflammation and epithelial and mucosal injury on microscopic cross-sections of the colon were graded semi-quantitatively from 0 to 4. For inflammation, a score of 0=no evidence for inflammation; 1=low level of inflammation with scattered infiltrating mononuclear cells (1-2 foci only); 2=moderate inflammation with multiple foci; 3=high level of inflammation with increased vascular density and marked wall thickening; and 4=maximal severity of inflammation with transmural leukocyte infiltration and loss of goblet cells. For injury, a score of 0=no epithelial injury; 1=occasional epithelial lesion; 2=1-2 foci of ulcerations; and 3=extensive ulcerations. […]"}, "[3]": {"tested_on": "B6.V-Lepob/Jrj mice (ob/ob)", "test": "Glucose tolerance (0-120 mins) after 28-day treatment in ob/ob mice", "assay_type": "in vivo, mouse", "conditions": "28 days", "experimental": "This study was carried out to assess the effects of chronic treatment with Compound B or Compound A on glucose tolerance in a T2DM rodent model.\nFor assessing the effects of Compound B, B6.V-Lepob/Jrj mice (ob/ob) mice were administered Compound B at one of 2 doses, 125 and 250 mg/kg for 28 days. […] After the oral glucose load, plasma glucose was measured at multiple time points from and AUC (0-120 mins) for glucose was calculated."}, "active GLP-1": {"tested_on": "active GLP-1", "test": "Active GLP-1 during oral glucose tolerance test (OGTT) and at 24 h in lean male SPD rats", "assay_type": "in vivo, rat", "experimental": "To establish the acute effects of oral administration of Compound A and Compound B upon active GLP-1 and insulin concentrations, lean (about 300 g) male Sprague-Dawley (SPD) rats were divided into groups (n=6-8) and fed 74 and 84 mg/kg body weight of Compound A or Compound B respectively, either with or without concurrent administration of a dipeptidyl peptidase 4 (DPP-4) inhibitor 60 minutes prior to an oral glucose tolerance test (OGTT) as outlined below. Parallel groups receiving either corn oil alone (corn oil+vehicle, n=10) or corn oil and a DPP-4 inhibitor (“DPP-4 i”) (corn oil+ (DPP-4 i), n=10) were included as controls. The DPP-4 inhibitor was linagliptin.\nA second oral dose of 74 and 84 mg/kg bodyweight of Compound A or Compound B respectively was administered at 240 minutes and ad lib feeding was initiated. A second dose of DPP-4 inhibitor was administered at 480 mins prior to lights out. Blood samples were collected at 24 h for measurement of active GLP-1 and insulin. All values are mean, figures depict mean values (SEM)."}, "atherogenic lipids": {"tested_on": "atherogenic lipids", "conditions": "APOE*3.CETP mice; cited from earlier work"}, "[4]": {"conditions": "high dose, 252 mg/kg per day, 7 days 1.5% DSS"}}, "note": "Several values for one entry are separate records, joined by “and”; a condition that tells them apart may be missing. Identical values can stand only once.", "data": [{"compound": "CC/C=C\\C/C=C\\C/C=C\\C/C=C\\C/C=C\\CCCCSC(CC)(CC)C(=O)O", "note": "[Compound B, 2-ethyl-2-((5Z,8Z,11 Z,14Z,17Z)-icosa-5,8,11,14,17-pentaenylthio)butanoic acid]", "values": [{"measurement": "Total excretion of radioactivity within the first 48 hours", "setting": "[1]", "value": "> 95", "unit": "%"}, {"measurement": "% Recovery of Administered Dose (Mean), Cage debris (0-168 h)", "setting": "[1]; n = 3", "value": 0.038, "unit": "%"}, {"measurement": "% Recovery of Administered Dose (Mean), Carcass (168 h)", "setting": "[1]; n = 3", "value": 1.14, "unit": "%"}, {"measurement": "% Recovery of Administered Dose (Mean), Faeces (0-168 h)", "setting": "[1]; n = 3", "value": "86% and 85.8%"}, {"measurement": "% Recovery of Administered Dose (Mean), Mean total radioactivity (0-168 h)", "setting": "[1]; n = 3", "value": 101, "unit": "%"}, {"measurement": "% Recovery of Administered Dose (Mean), Urine (0-168 h)", "setting": "[1]; n = 3", "value": "12% and 12.4%"}, {"measurement": "% Recovery of Administered Dose (Mean), Cage wash (0-168 h)", "setting": "[1]; n = 3, includes final cage wash", "value": 1.27, "unit": "%"}, {"measurement": "Difference in weight loss between control and treated group", "setting": "[2]; 126 mg/kg per day (Compound B-Low) oral gavage, C56BL/6J mice", "value": "statistically significant after 7 days"}, {"measurement": "Difference in weight loss between control and treated group", "setting": "[2]; 252 mg/kg per day (Compound B-High) oral gavage, C56BL/6J mice", "value": "statistically significant after 6 days"}, {"measurement": "Body weight loss compared to control", "setting": "[2]; 126 and 252 mg/kg per day oral gavage, 7 days 1.5% DSS, C56BL/6J mice", "value": "dose-dependent reduction in weight loss"}, {"measurement": "Histology of colon cross-sections in treated mice", "setting": "[2]; 126 and 252 mg/kg per day, 7 days 1.5% DSS", "value": "dose-dependent attenuation of inflammatory infiltrates and edema"}, {"measurement": "Colon length compared to control", "setting": "[2]; both low (126 mg/kg) and high (252 mg/kg) doses per day, 7 days 1.5% DSS, C56BL/6J mice", "value": "significant increase in colon length"}, {"measurement": "Survival rate 7 days after colitis was induced", "setting": "[2]; high dose, 252 mg/kg per day oral gavage", "value": 100, "unit": "%"}, {"measurement": "Histological cross-sections of colon, morphology", "setting": "[2]; [4]", "value": "almost complete rescue"}, {"measurement": "Inflammation and epithelial and mucosal injury versus untreated mice", "setting": "[2]; [4]", "value": "lower"}, {"measurement": "Histological scores of colon versus untreated mice", "setting": "[2]; high dose, 252 mg/kg per day, 7 days 1.5% DSS, H&E", "value": "significantly lower"}, {"measurement": "Survival rate 7 days after colitis was induced", "setting": "[2]; low dose, 126 mg/kg per day oral gavage", "value": 90, "unit": "%"}, {"measurement": "AUC (0-120 mins) glucose", "setting": "[3]; 250 mg/kg once-daily oral gavage", "value": "potent and highly significant (p<0.001) reduction"}, {"measurement": "Glucose tolerance after 2 g/kg oral glucose load", "setting": "[3]; both doses, 125 and 250 mg/kg once-daily oral gavage", "value": "improved glucose tolerance"}, {"measurement": "Increase in active GLP-1 (AUC 0-60 mins) versus corn oil+vehicle", "setting": "active GLP-1; Compound B 84 mg/kg oral in combination with DPP4 inhibitor (linagliptin), OGTT, p<0.05", "value": "> 2", "unit": "fold"}, {"measurement": "Effect on active GLP-1 concentration at 24 h versus corn oil+vehicle", "setting": "active GLP-1; in combination with DPP4 inhibitor, Compound A 74 mg/kg or Compound B 84 mg/kg oral, two doses", "value": "significantly (p<0.01) increased"}, {"measurement": "Effect on atherogenic lipids", "setting": "atherogenic lipids", "value": "significantly reduce atherogenic lipids"}]}]}
